Reference: patent publication US5968940A, “Retinoids and methods of use of same” (priority 1996, dated 1999)

Experiments:
[1] = tested on: human acute myeloid leukemia (AML), neuroblastoma, teratocarcinoma, melanoma, and rat rhabdomyosarcoma cells; conditions: Smith et al. 1992; cited from earlier work
[2] = tested on: fetus absorption in mice; experiment: Effect on fetus absorption in mice; type: in vivo
Protocol: (§1) Female mice were examined by vaginal smear the morning after being caged with male mice, and if sperm or a vaginal plug was discovered, then the mice were determined to be pregnant. The retinoids were administered at the dosage indicated starting on the seventh day of pregnancy and continued once a day for the next ten days. On the 20th day after the female mice were determined to be pregnant, they were sacrificed by cervical dislocation. Both sides of the uterus were checked and the number of living embryos, dead embryos, and absorbed embryos were counted. The living embryos were further examined for bone abnormalities.

[3] = tested on: bone abnormalities in mouse fetus; experiment: Bone abnormalities in mouse fetus; type: in vivo; conditions: 101 mg/kg (so in the source)
Protocol: as §1
After the embryos became transparent, they were dissected and their skeletons were checked by observation under a microscope.

[4] = tested on: Human promyelocytic leukemia HL-60 cells; experiment: Cell differentiation of HL-60 cells, nitroblue tetrazolium (NBT) reduction / morphology; type: cell-based
Protocol: Human promyelocytic leukemia HL-60 cells were cultured in RPMI-1640 medium supplemented by 10% heat-inactivated calf serum and 100 U/ml of penicillin plus 100 μg/ml of streptomycin. The flasks containing cells and medium were incubated in an incubator with 5% CO2 at 37° C. Log phase cells were seeded into the medium at a concentration of 1.2×10^5to 1.4×10^5 cells per ml and cultured in flasks containing 5 ml of medium. Each group consisted of three flasks. Different concentrations of coumarin-retinoids were added. At intervals following the addition of coumarin-retinoids to the cultures, a small portion of cells was removed and live cells were counted under a light microscope using a dye-exclusionmethod with trypan blue. Cell differentiation was judged in terms of morphology and nitroblue tetrazolium (NBT) reduction.
For a determination of NBT reducing activity, a portion of the coumarin-retinoid-treated cells was removed at intervals following treatment and centrifuged. After centrifugation, 0.5 ml of 0.1% NBT (containing 100 ng TPA) was added to each tube. The contents of the test tubes were then incubated for 1 hour at 37° C. Cell smears were prepared from the cell sediment and stained using the Wright-Giemsa technique. For each smear prepared, 200 cells were isolated for examination under a light microscope with an oil immersion lens. Cells stained with blue-black granules were considered NBT-positive cells. The 50% differentiation or effective concentration (ED50 or EC50) is shown in terms of molar (M) concentration of the […] tested.
For a determination of cell morphology, a cell smear was prepared at intervals following treatment of cells for each coumarin-retinoid concentration group using the Wright-Giemsa stain technique. Stained cells were counted and classified under a light microscope with an oil immersion lens. After treatment with coumarin-retinoids, the morphological development of HL-60 cells proceeded toward mature granulocytes. This development was manifested by decreased cell volume; a lower nuclei to cytoplasm ratio; smaller or missing nuclei; concentration of chromatin; and the appearance of a certain proportion of intermediate and late granuloblasts (progranulocytes), elongated rod granulocytes, and granulocytes with branched nuclei.
The protocols of Examples 14 and 21 were used, for the NBT and MTT assays, respectively.

[5] = tested on: croton oil induced ear edema in mice; experiment: Croton oil induced ear edema in mice; type: in vivo
Protocol: ICR mice (body weight 18-20 grams) were used. Each group consisted of 10 mice. After three dosage treatments, the left ears of the mice in both the treated group and the control group were painted with 2% croton oil in 0.05 ml ether. All the mice were sacrificed six hours later and the ears of both sides were punched by a corneal knife and weighed, the difference of the ear weight of both sides for each mouse was calculated. The t- Student test was used for statistical calculation. Croton oil induced ear edema is a classical assay for evaluation of cancer promotion.

[6] = tested on: Ornithine decarboxylase (ODC); experiment: Croton oil induced ornithine decarboxylase (ODC) activity in mouse epidermis; type: in vivo; conditions: ICR mice, single dose pretreatment; FIG. 1, n=3
Protocol: ICR mice (6-8 weeks old) were pretreated with a single dose of coumarin retinoid. On the third day, the animals received a topical application of 0.2 ml of 1% croton oil in acetone. All animals were sacrificed five hours after the croton oil treatment and the epidermis was separated by a brief heat treatment at 52° C. for 30 seconds and minced in a blender. The cell suspension and broth were separated by a centrifugation at 30,000×g for 30 seconds and the supernatant was obtained. Ornithine decarboxylase (ODC) enzyme activity was determined by measuring the release of CO2 from L-(^14 C)-ornithine and expressed as nmole CO2 /30 min/mg protein and the results for coumarin retinoid I-10 and I-6 are shown in FIG. 1. […] ODC activity is a critical parameter for monitoring cancer chemoprevention or promotion.

[7] = tested on: lipid peroxidation of rat liver microsome; experiment: Inhibition of Fe+2/Cys induced lipid peroxidation of rat liver microsome; type: biochemical
Protocol: Lipid peroxidation was induced by adding 1 mM FeSO4 and 10 mM cysteine to the microsome fraction of rat liver with the incubations being carried out at 37° C. for 30 minutes in a reaction mixture containing 10 mM phosphate buffer (pH 7.4). The reaction was terminated by the addition of 0.3 ml of 20% trichloroacetic acid solution. Thiobarbituric acid was then added and the mixture was boiled for 10 minutes. After cooling the test tubes under running tap water, the optical density at 532 nm was measured. Lipid peroxidation in both the treated groups and the control group was expressed in nmol MDA/mg protein. The percentage inhibition indicates the anti-oxidation properties of the coumarin retinoids tested.

[8] = tested on: Salmonella typhimurium strain TA102; experiment: Anti-mutagenicity (Ames), TA102; type: cell-based; conditions: MMS mutagen alone, 0.5 μl/plate
Protocol: (§2) An antimutagenicity assay was conducted according to the method developed by Ames et al. using Salmonella typhimurium strains TA 102 and TA 100 and mammalian microsomal enzymes. Beta-naphthoflavone and phenobarbital-induced rat liver supernatant (9000×g S-9 fraction) was used as the enzyme source for metabolic activation. The night before the experiment, certified bacterial solution (assessed for its biological characteristics and donated by Professor Ames) was inoculated into petri dishes. The petri dishes were then incubated for 15 hours at 37° C. From each petri dish, 0.1 ml of the bacterial solution was removed and added to sterile test tubes. To these test tubes, 0.1 ml of different concentrations of coumarin retinoids and 0.5 ml of either S-9 mixed solution or phosphate buffer were then added. The final solution for each test tube was incubated in a water bath at 37° C. for 20 minutes before adding 2 ml of agar solution. After thorough mixing, the solution was transferred into petri dishes and incubated once again at 37° C. for 48 hours. After incubation, the number of colonies in each petri dish were counted. The revertant numbers of the bacteria in control and treated groups were compared and the inhibition rate was calculated.

[9] = tested on: Salmonella typhimurium strain TA100; experiment: Anti-mutagenicity (Ames), TA100; type: cell-based; conditions: MMS mutagen alone, 0.5 μl/plate
Protocol: as §2

[10] = 10 mg/kg once a day from day 7 of pregnancy

CC1=C(/C=C/C(C)=C/C=C/C(C)=C/C(=O)O)C(C)(C)CCC1 [All Trans RA, all-trans-retinoic acid, reference compound]
induction of cell differentiation [1]: induces cell differentiation | Fetus Absorption (%) [2, 10]: 73.7% | Fetus Absorption, absorbed number/implanted number [2, 10]: 73/99 | Absorbed Number ([2]; 15 mg/kg, implanted number 186, 15 pregnant mice): 111 | Delayed Calcification, Occipital delay/fetus number [3]: 6/16 | Delayed Calcification, Sternum delay/fetus number [3]: 16/16

CC(=O)c1cc2cc(Cl)c(OC(=O)/C=C(C)/C=C/C=C(C)/C=C/C3=C(C)CCCC3(C)C)cc2oc1=O [Compound I-6]
NBT (+) % ([4]; 10^-4 M): 96% | NBT (+) % ([4]; 10^-5 M): 81% | NBT (+) % ([4]; 10^-6 M): 78% | NBT (+) % ([4]; 10^-7 M): 31% | NBT (+) % ([4]; 10^-8 M): 2% | Ear Edema (x ± SD) ([5]; 50 mg/kg): 13.4 ± 3.1 mg | IR (%) ([5]; 50 mg/kg): 19% | Ear Edema (x ± SD) ([5]; 100 mg/kg): 15.1 ± 2.7 mg | IR (%) ([5]; 100 mg/kg): 9% | inhibition of croton oil induced ODC activity [6]: significantly inhibited the ODC activity induced by croton oil | Inhibition (%) of lipid peroxidation ([7]; 20 μM): 9.6% | Inhibition (%) of lipid peroxidation ([7]; 200 μM): 13.5% | Lipid Peroxidation ([7]; 200 μM, n = 3, p < 0.05): 2.03 ± 0.16 μM MDA/mg protein

COS(C)(=O)=O [MMS]
his+ -revertants/per plate, TA102 [8]: 1760 ± 288.4 revertants/per plate | his+ -revertants/per plate, TA100 [9]: 1083.7 ± 99.3 revertants/per plate
